Assay results as given in publication PMC11202002, “P18: Novel Anticancer Peptide from Induced Tumor-Suppressing Cells Targeting Breast Cancer and Bone Metastasis” (Cancers, 2024).

How the values were obtained:
[1] = system: MCF7 cells; assay: MTT-based cell viability assay; parameters: species or system human; conditions: 5, 10, 15, and 25 µg/mL of P18
Experimental: (§1) Using 96-well plates with approximately 2000 cells per well, an MTT-based metabolic activity assay was performed. The cells were treated with agents and incubated for two days. On the fourth day, they were stained with 0.5 mg/mL thiazolyl blue tetrazolium bromide (M5655, Sigma). The optical density, used to assess metabolic activity, was measured at 562 nm. For the EdU-based proliferation activity assay, the cells were seeded in 96-well plates at about 1000 cells per well. A fluorescence-based cell proliferation kit (Click-iT™, EdU Alexa Fluor™ 488 Imaging Kit; Thermo Fisher, Waltham, MA, USA) was used according to the manufacturer’s instructions.

[2] = system: MDA-MB-231 cells; assay: MTT-based cell viability assay; parameters: species or system human
Experimental: as §1

[3] = system: MDA-MB-436 cells; assay: MTT-based cell viability assay; parameters: species or system human
Experimental: as §1

[4] = system: PANC198 PDAC cells; assay: MTT-based cell viability assay; conditions: PANC198 (PAN198); 25 μg/mL
Experimental: as §1

[5] = system: TT2 osteosarcoma cell line; assay: MTT-based cell viability assay; conditions: TT2; 25 μg/mL
Experimental: as §1

[6] = system: 4T1.2 mammary tumor cells; assay: MTT-based cell viability assay; parameters: species or system mouse; conditions: 25 μg/mL
Experimental: as §1

[7] = system: Jurkat lymphocytes; type: cell-based
Experimental: as §1

[8] = system: MC3T3 osteoblasts; type: cell-based
Experimental: as §1

[9] = system: MDA-MB-231 cells; assay: Scratch-based motility assay; type: cell-based, human; conditions: 25 µg/mL, 24 h
Experimental: (§2) To evaluate the two-dimensional motility of cancer cells, a wound-healing scratch assay was utilized, and the change in the scratch area was determined. On day 1, ~3 × 10^5 cells were seeded in 12-well plates, and, on day 2, a scratch was made on the cell layer, with the tip of a plastic pipette. Using a light microscope (40×), cell-free zones were imaged after 0 h and 24 h, and the alteration in their areas was quantified by Image J (Version 1.54 f).

[10] = system: MDA-MB-436 cells; assay: Scratch-based motility assay; type: cell-based, human; conditions: 25 µg/mL, 24 h
Experimental: as §2

[11] = system: 4T1.2 mammary tumor cells; assay: Scratch-based motility assay; type: cell-based, mouse; conditions: 25 μg/mL
Experimental: as §2

[12] = system: MDA-MB-231 cells; assay: EdU-based proliferation assay; type: cell-based, human; conditions: 25 µg/mL
Experimental: as §1

[13] = system: MDA-MB-436 cells; assay: EdU-based proliferation assay; type: cell-based, human; conditions: 25 µg/mL
Experimental: as §1

[14] = system: MDA-MB-231 cells; assay: Transwell invasion assay; type: cell-based, human; conditions: 25 µg/mL
Experimental: (§3) The invasion capacity of cancer cells in response to ACPs was assessed using 8 µm pore transwell chambers (353182, Thermo Fisher) in a 12-well plate. The chambers were coated with 300 µL Matrigel (100 µg/mL) and filled with 500 µL of the serum-free medium. After washing the chamber three times with the serum-free medium, approximately 7 × 10^4 cells in 300 µL serum-free DMEM were placed in the upper chamber, while 800 µL medium was added to the lower chamber. Cells that migrated to the lower side of the membrane were fixed with methanol and stained with crystal violet. Five random images were captured with an inverted optical microscope at 100× magnification, and the average number of stained cells, representing the invasion capacity, was determined.

[15] = system: MDA-MB-436 cells; assay: Transwell invasion assay; type: cell-based, human; conditions: 25 µg/mL
Experimental: as §3

[16] = system: human triple-negative breast cancer tissue; assay: Ex vivo cancer tissue assay; type: cell-based; conditions: 25 µg/mL of P18; four days (96 h); n = 6
Experimental: The usage of human triple-negative breast cancer tissue was approved by the Indiana University Institutional Review Board (1911155674), and the tissues were received from the Indiana University Simon Comprehensive Cancer Center Tissue Procurement Core. Freshly isolated breast cancer tissue (~10 mg) was manually fragmented with a scalpel into small pieces (0.5~0.8 mm in length), which were grown in DMEM with 10% FBS and antibiotics for a day. […] The culture medium, consisting of these agents, was applied for 4 days, and a change in the fragment size was determined.

[17] = system: MDA-MB-231 breast cancer cells; assay: Western blot analysis; type: cell-based, human; conditions: 25 µg/mL
Experimental: (§4) Cells were lysed using a RIPA lysis buffer (sc-24948, Santa Cruz Biotech, Dallas, TX, USA) containing protease inhibitors (PIA32963, Thermo Fisher) and phosphatase inhibitors (2006643, Cal-biochem, Billerica, MA, USA). The proteins were separated on 10–15% SDS gels (Bio-Rad Laboratories, Hercules, CA, USA) and transferred to a polyvinylidene difluoride membrane (IPVH00010, Millipore, Billerica, MA, USA). The membrane was incubated with primary antibodies, followed by incubation with secondary antibodies (7074S/7076S, Cell Signaling, Danvers, MA, USA). The antibodies used included those against Snail, p-Src, Src, cleaved caspase 3, caspase 3, RANKL, Cdc42, Col1 and RhoA (Cell Signaling), ALP (Santa Cruz Biotech), OCN (Abcam, Boston, MA, USA), with β-actin (Sigma) as a control. The protein levels were detected using SuperSignal West Femto Maximum Sensitivity Substrate (PI34096, Thermo Fisher) and a luminescent image analyzer (LAS-3000, Fuji Film, Tokyo, Japan).

[18] = system: MDA-MB-436 breast cancer cells; assay: Western blot analysis; type: cell-based, human; conditions: 25 µg/mL
Experimental: as §4

[19] = system: Col1, ALP, OCN; assay: Western blot analysis of osteoblast development proteins; type: cell-based; conditions: Suppl. Figure S1d
Experimental: as §4

[20] = system: femurs inoculated with 4T1.2 mammary tumor cells; assay: Bone microenvironment assay (ex vivo bone culture, Western blot); type: cell-based, mouse; conditions: 25 μg/mL P18 daily; 2 weeks
Experimental: as §4
Femora were collected from […] female mice (~10 weeks old), and the surrounding connective tissues were removed. The femora were cut in half at the mid-diaphysis, and a hole was created at the end of the sample using a 25-gauge needle. 4T1.2 mammary tumor cells (2.5 × 10^5 cells) were resuspended in 10 μL of culture medium and injected into the bone marrow cavity through the open end of the diaphysis. […]

[21] = relative to cn = 1.00, peptide concentration not given, treated two days, OD 562 nm

**Q.** For TDYMVGSYGPR [P18], which “decrease in MTT viability” value [1] is on record?
**A.** dose-dependent

**Q.** What about the “decrease in MTT viability” value ([2]; 5, 10, 15, and 25 µg/mL of P18) of the same sequence?
**A.** dose-dependent

**Q.** What about the MTT-based relative viability [2, 21] of the same sequence?
**A.** 0.86

**Q.** What about the “decrease in MTT viability” value ([3]; 5, 10, 15, and 25 µg/mL of P18) of the same sequence?
**A.** dose-dependent

**Q.** And the MTT-based relative viability [3, 21]?
**A.** 0.82

**Q.** What about the MTT-based viability [4] of the same sequence?
**A.** significantly decreased

**Q.** What about the MTT-based viability [5] of the same sequence?
**A.** significantly decreased

**Q.** And the MTT-based viability [6]?
**A.** consistently reduced

**Q.** And the MTT viability [7]?
**A.** did not exhibit any significant effects

**Q.** What about the MTT viability [8] of the same sequence?
**A.** did not exhibit any significant effects

**Q.** What about the scratch-based motility [9] of the same sequence?
**A.** effectively reduced

**Q.** And the scratch-based mobility [10]?
**A.** inhibited

**Q.** What about the scratch-based mobility [11] of the same sequence?
**A.** consistently reduced

**Q.** And the EdU-based proliferation [12]?
**A.** decreased

**Q.** And the EdU-based proliferation [13]?
**A.** inhibited

**Q.** And the transwell invasion [14]?
**A.** decreased

**Q.** And the transwell invasion [15]?
**A.** inhibited

**Q.** And the “size of ex vivo breast tissue fragments” value [16]?
**A.** significant decrease in the size

**Q.** And the “levels of RhoA and Cdc42” value [17]?
**A.** slight upregulation

**Q.** What about the “levels of cleaved caspase 3” value [17] of the same sequence?
**A.** increasing

**Q.** What about the “levels of p-Src and Snail” value [17] of the same sequence?
**A.** downregulated

**Q.** What about the “levels of RhoA and Cdc42” value [18] of the same sequence?
**A.** slight upregulation

**Q.** What about the “levels of cleaved caspase 3” value [18] of the same sequence?
**A.** increasing

**Q.** What about the “levels of p-Src and Snail” value [18] of the same sequence?
**A.** downregulated

**Q.** And the “expression of type I collagen (Col1), alkaline phosphatase (ALP), and osteocalcin (OCN)” value [19]?
**A.** upregulated

**Q.** What about the “levels of c-Cas 3, Cdc42, and alkaline phosphatase (ALP)” value [20] of the same sequence?
**A.** upregulation
